Target: T1, Geranylgeranyl pyrophosphate synthase (Homo sapiens, UniProt O95749)
T1 sequence (O95749 whole entry): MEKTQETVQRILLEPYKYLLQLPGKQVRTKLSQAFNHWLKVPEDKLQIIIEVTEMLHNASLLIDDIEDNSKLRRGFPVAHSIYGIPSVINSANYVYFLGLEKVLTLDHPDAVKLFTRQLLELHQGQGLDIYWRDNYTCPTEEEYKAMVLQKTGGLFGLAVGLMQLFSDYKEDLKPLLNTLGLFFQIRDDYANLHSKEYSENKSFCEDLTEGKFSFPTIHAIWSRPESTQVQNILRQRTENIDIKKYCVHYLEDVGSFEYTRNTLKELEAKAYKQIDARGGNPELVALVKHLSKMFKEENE
Assay: GGPP Synthase Inhibition Assay
Settings: pH 7; 37 °C
Experimental: The inhibitory activity of each test compound was evaluated by monitoring the formation of [14C]GGPP from FPP, using [14C]IPP as the substrate. To confirm the formation of radioactive products, one-dimensional thin-layer chromatography (TLC), with autoradiographic detection of [14C]FPP/[14C]GGPP, was used.

| SMILES | IC50 |
| --- | --- |
| CCCCCCCCc1ccc[n+](CC(O)(P(=O)([O-])O)P(=O)(O)O)c1 (configuration not stated) [1-(2-hydrogenphosphonato-2-hydroxy-2-phosphonoethyl)-3-octylpyridin-1-ium] | 1380 nM |
| CCCCCCCCCC(O)(P(=O)(O)O)P(=O)(O)O [(1-hydroxy-1-phosphonodecyl)phosphonic acid] | 890 nM |
